Results taken from patent US4549022A, “4-Pyridone-3-carboxylic acid derivatives” (Hoffmann-La Roche Inc., priority 1978, dated 1985).
Values after ≈ are worked out from the molar mass of the structure shown. Like-named read-outs stand apart in the source and are kept apart here.

Assays:
central nervous system = assay: Turning rat test (minimum active dosage); assay type: in vivo
LD50 (acute toxicity) = assay type: in vivo
Escherichia coli [1] = assay: Escherichia coli in vitro MIC (Minimum Inhibitory Concentration); assay type: cell-based
Escherichia coli [2] = assay: Escherichia coli in vivo (mouse) ED50
[3] = vs d-amphetamine and d-methamphetamine, see Table 1

Row | SMILES | MIC (Escherichia coli [1]; read-out: MIC) [µg/mL] | ED50 (Escherichia coli [2]; po, read-out: ED50) [mg/kg] | further results
1 | CCn1cc(C(=O)O)c(=O)cc1-c1ccccc1 [1-ethyl-4-oxo-6-phenyl-1,4-dihydronicotinic acid] |  |  | Turning rat test minimum active dosage (central nervous system; Arch. int. Pharmacodyn. Ther. 217, 118-130 (1975)): 1; activity compared with d-amphetamine and d-methamphetamine (central nervous system; [3]): about the same strong activity; activity compared with nomifensin (central nervous system; vs nomifensin, see Table 1): substantially superior activity to nomifensin; LD50 (LD50 (acute toxicity); in vivo, po): 300 to 600 mg/kg; LD50 compared with d-amphetamine and d-methamphetamine (LD50 (acute toxicity); [3]): substantially lower LD50; LD50 compared with nomifensin (LD50 (acute toxicity); vs nomifensin, see Table 1): about the same LD50
2 | CCn1cc(C(=O)O)c(=O)cc1-c1ccc2c(c1)OCO2 [1-ethyl-6-(3,4-methylenedioxyphenyl)-4-oxo-1,4-dihydronicotinic acid] | 2.5 (≈ 8.7 µM) | > 100 | 
3 | CCn1cc(C(=O)O)c(=O)cc1-c1ccc(NC)c(C)c1 [1-ethyl-6-(3-methyl-4-methylaminophenyl)-4-oxo-1,4-dihydronicotinic acid] | 0.6 (≈ 2.1 µM) | 3.5 | 
4 | CCn1cc(C(=O)O)c(=O)cc1-c1ccc(OC)cc1 [1-ethyl-6-(4-methoxyphenyl)-4-oxo-1,4-dihydronicotinic acid] | 2.5 (≈ 9.15 µM) | > 100 | 
5 | CCn1cc(C(=O)O)c(=O)cc1-c1ccc(SC)cc1 [1-ethyl-6-(4-methylthiophenyl)-4-oxo-1,4-dihydronicotinic acid] | 2.5 (≈ 8.64 µM) | 82 | 
6 | CCn1cc(C(=O)O)c(=O)cc1-c1ccc(N2CCCC2)cc1 [1-ethyl-6-(4-pyrrolidinophenyl)-4-oxo-1,4-dihydronicotinic acid] | 1.2 (≈ 3.84 µM) | 19 | 
7 | CCn1cc(C(=O)O)c(=O)cc1-c1ccc(-n2cccc2)cc1 [1-ethyl-6-(4-pyrrolophenyl)-4-oxo-1,4-dihydronicotinic acid] |  |  | MIC (Escherichia coli [1]): 1.2 µg/mL (≈ 3.89 µM); ED50 (Escherichia coli [2]; p.o.): 34 mg/kg
8 | CCn1cc(C(=O)O)c(=O)cc1-c1ccc(N(C)C)cc1 [1-ethyl-6-[4-(dimethylamino)-phenyl]-4-oxo-1,4-dihydronicotinic acid] | 0.6 (≈ 2.1 µM) | 8.8 | 
9 | O=C1CN(/N=C/c2ccc([N+](=O)[O-])o2)C(=O)N1 [Nitrofurantoin, reference compound] | 5 (≈ 21 µM) | > 100 | 
